Earlier results in patent US7422793B2, “Non-toxic corrosion-protection rinses and seals based on rare earth elements” (University of Dayton, priority 2002, dated 2008).
≈ marks a conversion by molar mass, not a printed value. Where two headings read alike, the source gives them in different places.

Details: cited from earlier work
[1] = fluoride preparative agents, at or near 25° C. and at or near pH 7

Molecule | Solubility in Water (pH 7) | Solubility in Water [1]
O=C(O)c1ccccc1C(=O)OO [Monoperoxyphthalic acid] | 10 mol/L (≈ 1820 mg/mL) | 
[O-][I+2]([O-])O[I+2]([O-])[O-] [Iodine pentoxide] | 5.6 × 10^0 mole/L | 
[F][Al-3]([F])([F])([F])([F])[F].[Na+].[Na+].[Na+] [Sodium hexafluoroaluminate] | 0.0029 mol/L | 
Cesium tungstate | 5 × 10^0 mole/L | 
[F][Nb-2]([F])([F])([F])([F])([F])[F].[Na+].[Na+] [Sodium heptafluoroniobate] | 0.05 mol/L | 
[K+].[O-][I+3]([O-])([O-])[O-] [Potassium periodate] | 0.029 mol/L | 
Manganese (II) Fluorosilicate | 4.59 × 10^0 mole/L | 
[O-][Cl+3]([O-])([O-])[O-].[O]=[Bi+] [Bismuthyl perchlorate] | 0.1 mol/L | 
[Cs+].[O-][I+3]([O-])([O-])[O-] [Cesium periodate] | 0.066 mol/L | 
[Cs+].[O]=[V](=[O])[O-] [Cesium vanadate] | 0.5 mol/L | 
O=C([O-])c1ccccc1C(=O)O[O-].[Mg+2] [Magnesium monoperoxyphthalate] | 10 mol/L | 
O=N[O-].O=N[O-].[Mg+2] [Magnesium nitrite] | 1 × 10^0 mole/L | 
[Cs+].[Cs+].[O]=[Mo](=[O])([O-])[O-] [Cesium molybdate] | 4.8 × 10^0 mole/L | 
[Ca+2].[O-][Cl+2]([O-])[O-].[O-][Cl+2]([O-])[O-] [Calcium chlorate] | 7.4 × 10^0 mole/L | 
[F][Sn-2]([F])([F])([F])([F])[F].[Li+].[Li+] [Lithium hexafluorostannate] | 0.01 mol/L | 
Rubidium heptafluorotantalate | 0.1 mol/L | 
Lithium bromate | 4.85 × 10^0 mole/L | 
[Cs+].[Cs+].[F][Nb-2]([F])([F])([F])([F])([F])[F] [Cesium heptafluoroniobate] | 0.3 mol/L | 
[Li+].[Li+].[O]=[Mo](=[O])([O-])[O-] [Lithium molybdate] | 10 mol/L | 
Rubidium heptafluoroniobate | 0.1 mol/L | 
F[B-](F)(F)F.[K+] [Potassium tetrafluoroborate] | 0.035 mol/L | 
[F-].[F-].[F-].[F-].[F-].[F-].[K+].[K+].[Sn+4] [Potassium hexafluorostannate] | 0.128 mol/L | 
[Cs+].[Cs+].[F][Ta-2]([F])([F])([F])([F])([F])[F] [Cesium heptafluorotantalate] | 0.3 mol/L | 
Potassium fluoroaluminate | 0.0061 mol/L | 
Rubidium tungstate | 50 mol/L | 
[Na+].[O]=[Al-]=[O] [Sodium aluminate] | 1 × 10^0 mole/L | 

Molecule | Solubility in Water (pH 7) | Solubility in Water [1]
Rubidium stannate | 5 × 10^0 mole/L | 
Vanadium pentoxide | 0.044 mol/L | 
Chloroperoxybenzoic acid | 10 mol/L | 
O=[Te](=O)([O-])[O-].[Li+].[Li+] [Lithium tellurate] | 1 × 10^0 mole/L | 
Potassium tungstate | 142 mol/L | 
[Li+].[O-][Cl+3]([O-])([O-])[O-] [Lithium perchlorate] | 5.6 × 10^0 mole/L | 
[F][Sb-]([F])([F])([F])([F])[F].[NH4+] [Ammonium fluoroantimonate] | 4.7 × 10^0 mole/L | 
[F][Nb-2]([F])([F])([F])([F])([F])[F].[K+].[K+] [Potassium heptafluoroniobate] | 0.26 mol/L | 
CCC[N+](CCC)(CCC)CCC.[O-][Cl+3]([O-])([O-])[O-] [Pr4N^+ perchlorate] | 0.1 mol/L | 
[F][Ti-2]([F])([F])([F])([F])[F].[K+].[K+] [Potassium hexafluorotitanate] | 0.06 mol/L | 
Copper (II) hexafluorosilicate | 7.4 × 10^0 mole/L | 
Magnesium hexaniobate | 0.088 mol/L | 
[Cs+].[Cs+].[F][Zr-2]([F])([F])([F])([F])[F] [Cesium hexafluorozirconate] | 0.112 mol/L | 
[Cs+].[Cs+].[O]=[Sn]([O-])[O-] [Cesium stannate] | 1 × 10^0 mole/L | 
[Na+].[O]=[Nb](=[O])[O-] [Sodium niobate] | 0.059 mol/L | 
[Mg+2].[O-][Cl+3]([O-])([O-])[O-].[O-][Cl+3]([O-])([O-])[O-] [Magnesium perchlorate] | 4.4 × 10^0 mole/L | 
Rubidium germanate | 0.5 mol/L | 
Potassium superoxide | 1 × 10^0 mole/L | 
[F][Ta-2]([F])([F])([F])([F])([F])[F].[Na+].[Na+] [Sodium heptafluorotantalate] | 0.05 mol/L | 
F[Si-2](F)(F)(F)(F)F.[Mg+2] [Magnesium hexafluorosilicate] |  | 3.9 × 10^0 mole/L
Rubidium tellurate | 0.01 mol/L | 
[Ca+2].[O-][Cl+3]([O-])([O-])[O-].[O-][Cl+3]([O-])([O-])[O-] [Calcium perchlorate] | 7.9 × 10^0 mole/L | 
[F][Sb-]([F])([F])([F])([F])[F].[K+] [Potassium fluoroantimonate] | 3.7 × 10^0 mole/L | 
[O-][Cl+3]([O-])([O-])[O-].[O-][Cl+3]([O-])([O-])[O-].[Sr+2] [Strontium perchlorate] | 13 mol/L | 

Molecule | Solubility in Water (pH 7) | Solubility in Water [1]
O=[Se](=O)(O)O [Sodium selenate] | 1.2 × 10^0 mole/L | 
Lithium germanate | 0.063 mol/L | 
[K+].[O-2].[O-2].[O-2].[Ta+5] [Potassium tantalate] | 0.005 mol/L | 
Cesium bromate | 0.14 mol/L | 
[F-].[F-].[F][Hf]([F])([F])[F].[K+].[K+] [Potassium hexafluorohafnate] | 0.13 mol/L | 
F[Si-2](F)(F)(F)(F)F.[Li+].[Li+] [Lithium hexafluorosilicate] |  | 3.8 × 10^0 mole/L
[F][Ti-2]([F])([F])([F])([F])[F].[Li+].[Li+] [Lithium hexafluorotitanate] | 0.05 mol/L | 
[F][Hf-2]([F])([F])([F])([F])[F].[Li+].[Li+] [Lithium hexafluorohafnate] | 0.1 mol/L | 
Strontium bromate | 0.91 mol/L | 
[Mg+2].[O-][Cl+2]([O-])[O-].[O-][Cl+2]([O-])[O-] [Magnesium chlorate] | 4.3 × 10^0 mole/L | 
[Mg+2].[O]=[Mo](=[O])([O-])[O-] [Magnesium molybdate] | 0.74 mol/L | 
[O]=[W](=[O])([OH])[OH] [Tungstic acid] | 0.8 mol/L | 
[Cs+].[Cs+].[F][Ti-2]([F])([F])([F])([F])[F] [Cesium hexafluorotitanate] | 0.055 mol/L | 
Sodium perborate | 0.17 mol/L | 
Iron (III) hexafluorosilicate | “soluble” | 
O=N[O-].[K+] [Potassium nitrite] | 35 mol/L | 
[F][Ta-2]([F])([F])([F])([F])([F])[F].[K+].[K+] [Potassium heptafluorotantalate] | 0.3 mol/L | 
F[Si-2](F)(F)(F)(F)F.[Ag+].[Ag+] [Silver (I) hexafluorosilicate] | 1 × 10^0 mole/L | 
Magnesium tungstate hydrate | 0.72 mol/L | 
[Na+].[Na+].[O]=[Sn]([O-])[O-] [Sodium stannate] | 2.3 × 10^0 mole/L | 
O=[Se](=O)(O)O [Selenic acid] | 60 wt. % | 
[Na+].[Na+].[O]=[Mo](=[O])([O-])[O-] [Sodium molybdate] | 215 mol/L | 
[F][Ta-2]([F])([F])([F])([F])([F])[F].[Li+].[Li+] [Lithium heptafluorotantalate] | 0.5 mol/L | 
